Measurements published in ChEMBL document CHEMBL4351028, “Benzoyl indoles with metabolic stability as reversal agents for ABCG2-mediated multidrug resistance” (Eur J Med Chem, 2019).
The source made the active and inactive calls. The rule behind the calls is not given here.

Columns and labels:
[1] = biological target: T1, Broad substrate specificity ATP-binding cassette transporter ABCG2 (Homo sapiens, UniProt Q9UNQ0); assay: Competitive substrate activity at ABCG2 (unknown origin) expressed in High Five insect cell vesicle membrane assessed as stimulation of ATPase activity up to 40 uM by PREDEASY ATPase assay relative to control
T1 sequence (Q9UNQ0 whole entry): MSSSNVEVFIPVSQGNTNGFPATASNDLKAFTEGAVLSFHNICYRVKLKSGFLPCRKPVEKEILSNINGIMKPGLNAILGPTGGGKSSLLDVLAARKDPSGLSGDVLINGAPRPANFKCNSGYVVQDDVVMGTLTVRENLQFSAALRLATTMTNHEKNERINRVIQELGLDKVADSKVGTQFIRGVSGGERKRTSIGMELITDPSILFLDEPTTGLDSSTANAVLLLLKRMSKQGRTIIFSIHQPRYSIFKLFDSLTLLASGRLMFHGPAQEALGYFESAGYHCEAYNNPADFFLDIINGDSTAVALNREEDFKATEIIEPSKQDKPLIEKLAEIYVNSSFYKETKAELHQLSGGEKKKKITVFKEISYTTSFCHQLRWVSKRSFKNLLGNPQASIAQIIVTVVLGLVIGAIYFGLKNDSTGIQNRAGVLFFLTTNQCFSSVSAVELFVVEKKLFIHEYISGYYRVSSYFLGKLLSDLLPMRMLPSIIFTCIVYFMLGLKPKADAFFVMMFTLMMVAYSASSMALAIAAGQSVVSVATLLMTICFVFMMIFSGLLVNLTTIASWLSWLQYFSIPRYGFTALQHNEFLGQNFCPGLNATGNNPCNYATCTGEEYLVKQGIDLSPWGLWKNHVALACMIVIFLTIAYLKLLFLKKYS

[2] = biological target: T1, Broad substrate specificity ATP-binding cassette transporter ABCG2; assay: (§1) Reversal of ABCG2-mediated multidrug resistance in human NCI-H460/MX20 cells assessed as potentiation of mitoxantrone-induced cytotoxicity by measuring inhibition of cell proliferation pretreated for 2 hrs followed by mitoxantrone addition and measured after 44 hrs by MTT assay; assay type: cell-based
HEK293 [3] = assay: Reversal of ABCG2 482-G2 mutant (unknown oirigin) expressed in HEK293 cells-mediated multidrug resistance assessed as potentiation of mitoxantrone-induced cytotoxicity at 10 to 25 uM pretreated for 2 hrs followed by mitoxantrone addition and measured after 44 hrs by MTT assay; assay type: cell-based; settings: Homo sapiens
[4] = biological target: T1, Broad substrate specificity ATP-binding cassette transporter ABCG2; assay: Competitive substrate activity at ABCG2 (unknown origin) expressed in High Five insect cell vesicle membrane assessed as stimulation of ATPase activity by PREDEASY ATPase assay
[5] = Metabolic stability in human liver microsomes assessed as compound remaining at 100 uM incubated for 1 hr by HPLC analysis; assay type: ADME, Microsome; settings: read-out: Stability
NCI-H460 [6] = assay: Cytotoxicity against human NCI-H460 cells assessed as inhibition of cell viability incubated for 2 hrs by MTT assay; assay type: cell-based; settings: NCI-H460, 2 h, read-out: IC50
NCI-H460 [7] = assay: Cytotoxicity against human NCI-H460 cells assessed as concentration that causes inhibition of cell viability by <=20% incubated for 24 hrs by MTT assay; assay type: cell-based; settings: nci-h460, 24 h
[8] = Cytotoxicity against human NCI-H460/MX20 cells assessed as inhibition of cell viability incubated for 2 hrs by MTT assay; assay type: cell-based; settings: NCI-H460/MX20, 2 h
Homo sapiens [9] = species: Homo sapiens; assay: Effect on ABCG2 internalization in human NCI-H460/MX20 cells at 25 uM incubated for 72 hrs by immunofluorescence analysis; assay type: functional, cell-based
ABCG2 [10] = biological target: T2, ABCG2 (Homo sapiens, UniProt Q9UNQ0); assay: Competitive substrate activity at ABCG2 (unknown origin) expressed in High Five insect cell vesicle membrane assessed as stimulation of ATPase activity at 0.21 uM by PREDEASY ATPase assay relative to control; settings: High Five insect cell vesicle membranes expressing ABCG2
T2 sequence (Q9UNQ0 whole entry): T1 sequence (Q9UNQ0 whole entry)

[11] = Cytotoxicity against HEK293 cells harbouring ABCG2-482-T7 mutant assessed as inhibition of cell viability at 5 to 25 uM incubated for 2 hrs by MTT assay relative to control; assay type: ADME, cell-based; settings: human, read-out: INH
[12] = biological target: T1, Broad substrate specificity ATP-binding cassette transporter ABCG2; assay: Reversal of ABCG2-mediated multidrug resistance in human S1-M1-80 cells assessed as potentiation of doxorubicin-induced cytotoxicity at 25 uM pretreated with compound for 2 hrs followed by doxorubicin challenge for 44 hrs by MTT assay; assay type: cell-based
HEK293 [13] = assay: Reversal of ABCG2 482-T7 mutant (unknown origin) expressed in HEK293 cells-mediated multidrug resistance assessed as potentiation of mitoxantrone-induced cytotoxicity at 10 to 25 uM pretreated for 2 hrs followed by mitoxantrone challenge and measured after 44 hrs by MTT assay; assay type: cell-based; settings: Homo sapiens
[14] = Cytotoxicity against human S1-M1-80 cells assessed as inhibition of cell viability at 5 to 25 uM incubated for 2 hrs by MTT assay relative to control; assay type: cell-based; settings: read-out: INH
[15] = Cytotoxicity against human NCI-H460 cells assessed as inhibition of cell viability at 5 to 25 uM incubated for 2 hrs by MTT assay relative to control; assay type: cell-based; settings: read-out: INH
[16] = Cytotoxicity against HEK293 cells transfected with pcDNA3.1 assessed as inhibition of cell viability at 5 to 25 uM incubated for 2 by MTT assay relative to control; assay type: cell-based; settings: human, read-out: INH
[17] = Cytotoxicity against human NCI-H460/MX20 cells assessed as inhibition of cell viability at 5 to 25 uM incubated for 2 hrs by MTT assay relative to control; assay type: cell-based; settings: read-out: INH
[18] = biological target: T1, Broad substrate specificity ATP-binding cassette transporter ABCG2; assay: Reversal of ABCG2-mediated multidrug resistance in human NCI-H460/MX20 cells assessed as potentiation of mitoxantrone-induced cytotoxicity at 10 to 25 uM pretreated with compound for 2 hrs followed by mitoxantrone challenge for 44 hrs by MTT assay; assay type: cell-based
[19] = Cytotoxicity against HEK293 cells harbouring ABCG2-482-G2 mutant assessed as inhibition of cell viability at 5 to 25 uM incubated for 2 hrs by MTT assay relative to control; assay type: ADME, cell-based; settings: human, read-out: INH
Homo sapiens [20] = species: Homo sapiens; assay: Effect on ABCG2 expression in human NCI-H460/MX20 cells at 25 uM incubated up to 72 hrs by Western blot analysis; assay type: functional, cell-based
[21] = Cytotoxicity against HEK293 cells expressing wild type ABCG2-482-R2 assessed as inhibition of cell viability at 5 to 25 uM incubated for 2 hrs by MTT assay relative to control; assay type: ADME, cell-based; settings: human, read-out: INH
[22] = Cytotoxicity against human NCI-H460/MX20 cells assessed as concentration that causes inhibition of cell viability by <=20% incubated for 24 hrs by MTT assay; assay type: cell-based
[23] = biological target: T1, Broad substrate specificity ATP-binding cassette transporter ABCG2; assay: Inhibition of ABCG2-mediated mitoxantrone efflux in human NCI-H460/MX20 cells assessed as increase in accumulation of [3H]MX at 10 uM incubated for 2 hrs followed by [3H]MX addition and measured after 2 hrs by liquid scintillation counter; assay type: cell-based
[24] = biological target: T1, Broad substrate specificity ATP-binding cassette transporter ABCG2; assay: Reversal of ABCG2-mediated multidrug resistance in human NCI-H460/MX20 cells assessed as potentiation of cisplatin-induced cytotoxicity at 25 uM pretreated for 2 hrs followed by cisplatin addition and measured after 44 hrs by MTT assay; assay type: cell-based
[25] = biological target: T1, Broad substrate specificity ATP-binding cassette transporter ABCG2; assay: Reversal of ABCG2-mediated multidrug resistance in human S1-M1-80 cells assessed as potentiation of mitoxantrone-induced cytotoxicity at 25 uM pretreated with compound for 2 hrs followed by mitoxantrone challenge for 44 hrs by MTT assay; assay type: cell-based
[26] = Cytotoxicity against human S1 cells assessed as inhibition of cell viability at 5 to 25 uM incubated for 2 hrs by MTT assay relative to control; assay type: cell-based; settings: read-out: INH
[27] = biological target: T1, Broad substrate specificity ATP-binding cassette transporter ABCG2; assay: Reversal of ABCG2 (unknown origin) expressed in HEK293 cells-mediated multidrug resistance assessed as potentiation of mitoxantrone-induced cytotoxicity at 10 to 25 uM pretreated for 2 hrs followed by mitoxantrone addition and measured after 44 hrs by MTT assay; assay type: cell-based; settings: hek293, 44 h
[28] = biological target: T1, Broad substrate specificity ATP-binding cassette transporter ABCG2; assay: as §1, with “proliferation at 25 uM” for “proliferation”, “assay (reference value: 24 +/- 3%)” for “assay”; assay type: cell-based
[29] = biological target: T1, Broad substrate specificity ATP-binding cassette transporter ABCG2; assay: Inhibition of ABCG2-mediated mitoxantrone efflux in human NCI-H460/MX20 cells assessed as increase in accumulation of [3H]MX at 25 uM incubated for 2 hrs followed by [3H]MX addition further incubated for 2 hrs by liquid scintillation counter relative to control; assay type: cell-based
ABCG2 [30] = biological target: T2, ABCG2; assay: Competitive substrate activity at ABCG2 (unknown origin) expressed in High Five insect cell vesicle membrane assessed as stimulation of ATPase activity at 0.75 uM by PREDEASY ATPase assay relative to control; settings: High Five insect cell vesicle membranes expressing ABCG2
HEK293 [31] = assay: Reversal of ABCG2 482-T7 mutant (unknown origin) expressed in HEK293 cells-mediated multidrug resistance assessed as potentiation of mitoxantrone-induced cytotoxicity at 2.5 to 5 uM pretreated for 2 hrs followed by mitoxantrone addition and measured after 44 hrs by MTT assay; assay type: cell-based; settings: Homo sapiens
HEK293 [32] = assay: Reversal of ABCG2 482-G2 mutant (unknown origin) expressed in HEK293 cells-mediated multidrug resistance assessed as potentiation of mitoxantrone-induced cytotoxicity at 2.5 to 5 uM pretreated for 2 hrs followed by mitoxantrone addition and measured after 44 hrs by MTT assay; assay type: cell-based; settings: Homo sapiens
[33] = biological target: T1, Broad substrate specificity ATP-binding cassette transporter ABCG2; assay: Reversal of ABCG2-mediated multidrug resistance in human NCI-H460/MX20 cells assessed as potentiation of mitoxantrone-induced cytotoxicity at 2.5 to 5 uM pretreated with compound for 2 hrs followed by mitoxantrone challenge for 44 hrs by MTT assay; assay type: cell-based
[34] = biological target: T1, Broad substrate specificity ATP-binding cassette transporter ABCG2; assay: Reversal of ABCG2-mediated multidrug resistance in human NCI-H460/MX20 cells assessed as cisplatin-induced cytotoxicity at 5 uM pretreated with compound for 2 hrs followed by cisplatin challenge for 44 hrs by MTT assay; assay type: cell-based
[35] = biological target: T1, Broad substrate specificity ATP-binding cassette transporter ABCG2; assay: as §1, with “proliferation at 10 uM” for “proliferation”, “assay (reference value: 24 +/- 3%)” for “assay”; assay type: cell-based
Homo sapiens [36] = species: Homo sapiens; assay: Effect on ABCG2 expression in human NCI-H460/MX20 cells at 5 uM incubated up to 72 hrs by Western blot analysis; assay type: functional, cell-based
[37] = biological target: T1, Broad substrate specificity ATP-binding cassette transporter ABCG2; assay: Reversal of ABCG2 (unknown origin) expressed in HEK293 cells-mediated multidrug resistance assessed as potentiation of mitoxantrone-induced cytotoxicity at 2.5 to 5 uM pretreated for 2 hrs followed by mitoxantrone addition and measured after 44 hrs by MTT assay; assay type: cell-based; settings: hek293, 44 h
[38] = biological target: T1, Broad substrate specificity ATP-binding cassette transporter ABCG2; assay: Inhibition of ABCG2-mediated mitoxantrone efflux in human NCI-H460/MX20 cells assessed as increase in accumulation of [3H]MX at 5 uM incubated for 2 hrs followed by [3H]MX addition further incubated for 2 hrs by liquid scintillation counter relative to control; assay type: cell-based
[39] = biological target: T1, Broad substrate specificity ATP-binding cassette transporter ABCG2; assay: Reversal of ABCG2-mediated multidrug resistance in human S1-M1-80 cells assessed as potentiation of mitoxantrone-induced cytotoxicity at 5 uM pretreated with compound for 2 hrs followed by mitoxantrone challenge for 44 hrs by MTT assay; assay type: cell-based
[40] = biological target: T1, Broad substrate specificity ATP-binding cassette transporter ABCG2; assay: Reversal of ABCG2-mediated multidrug resistance in human S1-M1-80 cells assessed as potentiation of doxorubicin-induced cytotoxicity at 5 uM pretreated with compound for 2 hrs followed by doxorubicin challenge for 44 hrs by MTT assay; assay type: cell-based
Homo sapiens [41] = species: Homo sapiens; assay: Effect on ABCG2 internalization in human NCI-H460/MX20 cells at 5 uM incubated for 72 hrs by immunofluorescence analysis; assay type: functional, cell-based

fold change (FC) [1]	Activity [4]	remaining at 1 h, 100 µM [5] [%]	SMILES	inhibition (INH) [2]	IC50 (NCI-H460 [6]) [µM]	Activity (NCI-H460 [7]) [µM]	IC50 [8] [µM]	cytotoxicity at 2 h, up to 25 µM [11] [%]	cytotoxicity at 2 h, up to 25 µM [14] [%]	cytotoxicity at 2 h, up to 25 µM [15] [%]	cytotoxicity at up to 25 µM [16] [%]	cytotoxicity at 2 h, up to 25 µM [17] [%]	cytotoxicity at 2 h, up to 25 µM [19] [%]	cytotoxicity at 2 h, up to 25 µM [21] [%]	Activity [22] [µM]	cytotoxicity at 2 h, up to 25 µM [26] [%]	other results
3.01	Dose-dependent effect	56	COc1ccc(C(=O)c2ccc3[nH]cc(C(=O)c4ccc(OC)cc4)c3c2OC)cc1	Dose-dependent effect	> 100	25	> 100	< 20	< 20	< 20	< 20	< 20	< 20	< 20	25	< 20	Activity (HEK293 [3]): Active; Activity (Homo sapiens [9]): inactive; Emax at 0.21 µM (ABCG2 [10]): 50%; Activity [12]: Active; Activity (HEK293 [13]): Active; Activity [18]: Active; Activity (Homo sapiens [20]): inactive; Activity [23]: Active; Activity [24]: Not Active; Activity [25]: Active; Activity [27]: Active; inhibition at 25 µM [28]: > 87%; fold change (FC) [29]: 3
2.03	Dose-dependent effect	78	COc1ccc(C(=O)c2c[nH]c3ccc(OC)cc23)cc1	Dose-dependent effect	> 100	10	66.9	< 20	< 20	< 20	< 20	< 20	< 20	< 20	10	< 20	Emax at 0.75 µM (ABCG2 [30]): 50%; Activity (HEK293 [31]): Active; Activity (HEK293 [32]): Active; Activity [33]: Active; Activity [34]: Not Active; inhibition at 10 µM [35]: > 87%; Activity (Homo sapiens [36]): inactive; Activity [37]: Active; fold change (FC) [38]: 2.7; Activity [39]: Active; Activity [40]: Active; Activity (Homo sapiens [41]): inactive
